Laboratory results taken from ChEMBL document CHEMBL3232776, “Emergence of pyrido quinoxalines as new family of antimalarial agents” (Eur J Med Chem, 2014).
Calls of active or inactive are those of the source. The rule behind the calls is not given here.

Legend:
Plasmodium falciparum [1] = assay: Potency index, ratio of ciprofloxacin IC50 to compound IC50 for chloroquine-resistant Plasmodium falciparum Dd2 infected in human erythrocytes; assay type: functional
Plasmodium falciparum [2] = assay: Potency index, ratio of ciprofloxacin IC50 to compound IC50 for chloroquine-sensitive Plasmodium falciparum 3D7 infected in human erythrocytes; assay type: functional
Plasmodium falciparum [3] = assay: Antimalarial activity against chloroquine-sensitive Plasmodium falciparum 3D7 infected in human erythrocytes assessed as parasite growth inhibition after 50 hrs by SYBR Green1 dye-based fluorescence assay; assay type: functional, organism-based
[4] = Solubility of the compound at 93 uM; assay type: physicochemical
HepG2 = assay: Cytotoxicity against human HepG2 cells assessed as cell viability after 72 hrs by MTT assay; assay type: cell-based; details: HepG2, 72 h
[5] = Selectivity index, ratio of IC50 for human THP1 cells to IC50 for chloroquine-sensitive Plasmodium falciparum 3D7; assay type: toxicity, cell-based, THP-1; details: read-out: Ratio IC50
Plasmodium falciparum [6] = assay: Antimalarial activity against chloroquine-resistant Plasmodium falciparum Dd2 infected in human erythrocytes assessed as parasite growth inhibition after 50 hrs by SYBR Green1 dye-based fluorescence assay; assay type: functional, cell-based; details: Dd2, 50 h
[7] = Selectivity index, ratio of IC50 for human HepG2 cells to IC50 for chloroquine-sensitive Plasmodium falciparum 3D7; assay type: toxicity, cell-based; details: read-out: Ratio IC50
THP-1 = assay: Cytotoxicity against human THP1 cells assessed as cell viability after 72 hrs by MTT assay; assay type: cell-based; details: THP-1, 72 h
Plasmodium falciparum [8] = assay: Antimalarial activity against blood stage form of Plasmodium falciparum assessed as incorporation of [3H]hypoxanthine after 72 hrs by liquid scintillation counting; assay type: functional, organism-based
[9] = Plasmodium falciparum, 3D7, 50 h, read-out: IC50

C#CCn1cc(C(=O)OCC)c(=O)c2c3nc(-c4ccccc4)c(-c4ccccc4)nc3ccc21
Ratio IC50 (Plasmodium falciparum [1]): 2
Ratio IC50 (Plasmodium falciparum [2]): 2
IC50 (Plasmodium falciparum [3]): ND(Insoluble)
solubility [4]: Insoluble

CCOC(=O)c1cn(CC)c2ccc3nc(-c4ccc(F)cc4)c(-c4ccc(F)cc4)nc3c2c1=O
Ratio IC50 (Plasmodium falciparum [1]): 2
Ratio IC50 (Plasmodium falciparum [2]): 2
IC50 (Plasmodium falciparum [3]; [9]): 32.2 µM

CCOC(=O)c1cn(Cc2ccc(F)cc2)c2ccc3nc(-c4ccccc4)c(-c4ccccc4)nc3c2c1=O
IC50 (HepG2): 150 µM
Ratio IC50 (Plasmodium falciparum [1]): 3.3
Ratio IC50 (Plasmodium falciparum [2]): 3.3
IC50 (Plasmodium falciparum [3]; [9]): 6.94 µM
selectivity ratio [5]: 28.8
IC50 (Plasmodium falciparum [6]): 6.27 µM
selectivity ratio [7]: 21.6
IC50 (THP-1): 200 µM

CCCCn1cc(C(=O)O)c(=O)c2c3nc(-c4ccc(F)cc4)c(-c4ccc(F)cc4)nc3ccc21
IC50 (Plasmodium falciparum [3]; [9]): 40.4 µM

CCOC(=O)c1cn(CC(F)(F)F)c2ccc3nc(-c4ccccc4)c(-c4ccccc4)nc3c2c1=O
Ratio IC50 (Plasmodium falciparum [1]): 2
Ratio IC50 (Plasmodium falciparum [2]): 2
IC50 (Plasmodium falciparum [3]; [9]): 13.1 µM

O=C(O)c1cn(Cc2ccc(C(F)(F)F)cc2)c2ccc3nc(-c4ccc(F)cc4)c(-c4ccc(F)cc4)nc3c2c1=O
IC50 (Plasmodium falciparum [3]; [9]): > 50 µM

CCn1cc(C(=O)O)c(=O)c2c3nc(-c4ccccc4)c(-c4ccccc4)nc3ccc21
growth inhibition (GI) (Plasmodium falciparum [3]): inactive
solubility [4]: Insoluble

Cc1c(F)c(N2CCNC(C)C2)cc2c1c(=O)c(C(=O)O)cn2C1CC1 (stereo not drawn) [GREPAFLOXACIN]
IC50 (Plasmodium falciparum [8]): 20 µM

C#CCn1cc(C(=O)OCC)c(=O)c2c3nc(-c4ccc(F)cc4)c(-c4ccc(F)cc4)nc3ccc21
Ratio IC50 (Plasmodium falciparum [1]): 2
Ratio IC50 (Plasmodium falciparum [2]): 2
IC50 (Plasmodium falciparum [3]; [9]): 18.7 µM

O=C(O)c1cn(Cc2ccc(F)cc2)c2ccc3nc(-c4ccccc4)c(-c4ccccc4)nc3c2c1=O
growth inhibition (GI) (Plasmodium falciparum [3]): inactive
solubility [4]: Insoluble

CCOC(=O)c1cnc2ccc3nc(-c4ccccc4)c(-c4ccccc4)nc3c2c1O
IC50 (Plasmodium falciparum [3]; [9]): 29.8 µM

C#CCn1cc(C(=O)O)c(=O)c2c3nc(-c4ccc(F)cc4)c(-c4ccc(F)cc4)nc3ccc21
IC50 (Plasmodium falciparum [3]; [9]): > 50 µM

O=C(O)c1cn(Cc2ccc(F)cc2)c2ccc3nc(-c4ccc(F)cc4)c(-c4ccc(F)cc4)nc3c2c1=O
IC50 (Plasmodium falciparum [3]; [9]): > 50 µM

CCOC(=O)c1cn(CC)c2ccc3nc(-c4ccccc4)c(-c4ccccc4)nc3c2c1=O
Ratio IC50 (Plasmodium falciparum [1]): 2
Ratio IC50 (Plasmodium falciparum [2]): 2
IC50 (Plasmodium falciparum [3]; [9]): 15.4 µM
IC50 (Plasmodium falciparum [6]): 11.3 µM

CCCCn1cc(C(=O)OCC)c(=O)c2c3nc(-c4ccc(F)cc4)c(-c4ccc(F)cc4)nc3ccc21
Ratio IC50 (Plasmodium falciparum [1]): 2
Ratio IC50 (Plasmodium falciparum [2]): 2
IC50 (Plasmodium falciparum [3]; [9]): > 50 µM

CCOC(=O)C(=CNc1ccc2nc(-c3ccccc3)c(-c3ccccc3)nc2c1)C(=O)OCC
IC50 (Plasmodium falciparum [3]; [9]): 16 µM
IC50 (Plasmodium falciparum [6]): 15.5 µM

CCCCn1cc(C(=O)OCC)c(=O)c2c3nc(-c4ccccc4)c(-c4ccccc4)nc3ccc21
Ratio IC50 (Plasmodium falciparum [1]): 2
Ratio IC50 (Plasmodium falciparum [2]): 2
IC50 (Plasmodium falciparum [3]; [9]): 9.17 µM

CCn1cc(C(=O)O)c(=O)c2c3nc(-c4ccc(F)cc4)c(-c4ccc(F)cc4)nc3ccc21
IC50 (Plasmodium falciparum [3]; [9]): > 50 µM

CCOC(=O)c1cn(Cc2ccc(F)cc2)c2ccc3nc(-c4ccc(F)cc4)c(-c4ccc(F)cc4)nc3c2c1=O
IC50 (HepG2): 200 µM
Ratio IC50 (Plasmodium falciparum [1]): 2
Ratio IC50 (Plasmodium falciparum [2]): 2
IC50 (Plasmodium falciparum [3]; [9]): 7.59 µM
selectivity ratio [5]: 18.4
IC50 (Plasmodium falciparum [6]): 7.11 µM
selectivity ratio [7]: 26.4
IC50 (THP-1): 140 µM

CCOC(=O)c1cn(Cc2ccc(C(F)(F)F)cc2)c2ccc3nc(-c4ccc(F)cc4)c(-c4ccc(F)cc4)nc3c2c1=O
Ratio IC50 (Plasmodium falciparum [1]): 2
Ratio IC50 (Plasmodium falciparum [2]): 2
IC50 (Plasmodium falciparum [3]; [9]): > 50 µM

O=C(O)c1cn(C2CC2)c2cc(N3CCNCC3)c(F)cc2c1=O [CIPROFLOXACIN]
IC50 (Plasmodium falciparum [3]; [9]): 23.1 µM
selectivity ratio [5]: 2.61
IC50 (Plasmodium falciparum [6]): 33.9 µM
IC50 (Plasmodium falciparum [8]): 20 µM
IC50 (THP-1): 60.5 µM

COc1cccc2c1C(=O)c1c(O)c3c(c(O)c1C2=O)C[C@@](O)(C(=O)CO)C[C@@H]3O[C@H]1C[C@H](N)[C@H](O)[C@H](C)O1 [DOXORUBICIN]
IC50 (HepG2): 0.2 µM
IC50 (THP-1): 0.05 µM

NC1CCN(c2c(F)cc3c(=O)c(C(=O)O)cn(C4CC4)c3c2Cl)C1 (stereo not drawn) [CLINAFLOXACIN]
IC50 (Plasmodium falciparum [8]): 20 µM

C#CCn1cc(C(=O)O)c(=O)c2c3nc(-c4ccccc4)c(-c4ccccc4)nc3ccc21
growth inhibition (GI) (Plasmodium falciparum [3]): inactive
solubility [4]: Insoluble

O=C(O)c1cn(Cc2ccc(C(F)(F)F)cc2)c2ccc3nc(-c4ccccc4)c(-c4ccccc4)nc3c2c1=O
growth inhibition (GI) (Plasmodium falciparum [3]): inactive
solubility [4]: Insoluble

CCn1cc(C(=O)O)c(=O)c2cc(F)c(N3CCNCC3)nc21 [ENOXACIN]
IC50 (Plasmodium falciparum [8]): 20 µM

CCOC(=O)c1cnc2ccc3nc(-c4ccc(F)cc4)c(-c4ccc(F)cc4)nc3c2c1O
IC50 (Plasmodium falciparum [3]; [9]): 15.7 µM
IC50 (Plasmodium falciparum [6]): 26.9 µM

CCOC(=O)C(=CNc1ccc2nc(-c3ccc(F)cc3)c(-c3ccc(F)cc3)nc2c1)C(=O)OCC
IC50 (Plasmodium falciparum [3]; [9]): 21.3 µM

O=C(O)c1cn(CC(F)(F)F)c2ccc3nc(-c4ccccc4)c(-c4ccccc4)nc3c2c1=O
growth inhibition (GI) (Plasmodium falciparum [3]): inactive
solubility [4]: Insoluble

CCOC(=O)c1cn(CC(F)(F)F)c2ccc3nc(-c4ccc(F)cc4)c(-c4ccc(F)cc4)nc3c2c1=O
IC50 (HepG2): 250 µM
Ratio IC50 (Plasmodium falciparum [1]): 5
Ratio IC50 (Plasmodium falciparum [2]): 5
IC50 (Plasmodium falciparum [3]; [9]): 3.92 µM
selectivity ratio [5]: 70.2
IC50 (Plasmodium falciparum [6]): 4.6 µM
selectivity ratio [7]: 63.8
IC50 (THP-1): 275 µM

CCCCn1cc(C(=O)O)c(=O)c2c3nc(-c4ccccc4)c(-c4ccccc4)nc3ccc21
growth inhibition (GI) (Plasmodium falciparum [3]): inactive
solubility [4]: Insoluble

CCOC(=O)c1cn(Cc2ccc(C(F)(F)F)cc2)c2ccc3nc(-c4ccccc4)c(-c4ccccc4)nc3c2c1=O
Ratio IC50 (Plasmodium falciparum [1]): 2
Ratio IC50 (Plasmodium falciparum [2]): 2
IC50 (Plasmodium falciparum [3]): ND(Insoluble)
solubility [4]: Insoluble

O=C(O)c1cn(CC(F)(F)F)c2ccc3nc(-c4ccc(F)cc4)c(-c4ccc(F)cc4)nc3c2c1=O
IC50 (Plasmodium falciparum [3]; [9]): > 50 µM
